Source: ChEMBL document CHEMBL1201862, “PubChem BioAssay data set” (2004)
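The compound was tested at five concentrations on cells cultured in 96-well plates, with a 48-hour exposure period. Here, GI50 denotes the concentration required for 50% inhibition of growth.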 Activity calls are given as the source filed them. Rule as the data show it: active = GI50 up to about 1.1 µM and inactive = higher.

Tests used:
Test in all cases: NCI-60 cell line screen, 48 h
Malme-3M = tested on: Malme-3M
PC-3 = tested on: PC-3
RXF 393 = tested on: RXF 393
HOP-62 = tested on: HOP-62
DU-145 = tested on: DU-145
OVCAR-8 = tested on: OVCAR-8
LOX IMVI = tested on: LOX IMVI
OVCAR-3 = tested on: OVCAR-3
MCF7 = tested on: MCF7
OVCAR-4 = tested on: OVCAR-4
KM12 = tested on: KM12
A498 = tested on: A498
U-251 = tested on: U-251
CCRF-CEM = tested on: CCRF-CEM
SF-295 = tested on: SF-295
TK-10 = tested on: TK-10
SN12C = tested on: SN12C
SK-MEL-28 = tested on: SK-MEL-28
ACHN = tested on: ACHN
HCT-15 = tested on: HCT-15
SF-539 = tested on: SF-539
IGROV-1 = tested on: IGROV-1
UACC-62 = tested on: UACC-62
HOP-92 = tested on: HOP-92
NCI-H460 = tested on: NCI-H460
SK-MEL-2 = tested on: SK-MEL-2
Hs-578T = tested on: Hs-578T
NCI-H226 = tested on: NCI-H226
EKVX = tested on: EKVX
RPMI-8226 = tested on: RPMI-8226
COLO 205 = tested on: COLO 205
T47D = tested on: T47D
SK-OV-3 = tested on: SK-OV-3
SK-MEL-5 = tested on: SK-MEL-5
OVCAR-5 = tested on: OVCAR-5
786-0 = tested on: 786-0
MDA-N = tested on: MDA-N
A549 = tested on: A549
SF-268 = tested on: SF-268
SW-620 = tested on: SW-620
MOLT-4 = tested on: MOLT-4
NCI-H522 = tested on: NCI-H522
NCI/ADR-RES = tested on: NCI/ADR-RES
SNB-75 = tested on: SNB-75
SNB-19 = tested on: SNB-19
MDA-MB-435 = tested on: MDA-MB-435
CAKI-1 = tested on: CAKI-1
HCT-116 = tested on: HCT-116
SR = tested on: SR
HT-29 = tested on: HT-29
MDA-MB-231 = tested on: MDA-MB-231
UACC-257 = tested on: UACC-257
K562 = tested on: K562
NCI-H23 = tested on: NCI-H23
UO-31 = tested on: UO-31
M14 = tested on: M14
HCC 2998 = tested on: HCC 2998
HL-60 = tested on: HL-60

For COc1ccccc1NC(=S)N/N=C1\C(=O)Nc2ccccc21, the GI50 (Malme-3M) was > 100 µM (inactive), the GI50 (PC-3) was > 100 µM (inactive) and the GI50 (RXF 393) was > 100 µM (inactive). For the same compound, the GI50 (HOP-62) was > 100 µM (inactive), the GI50 (DU-145) was 0.762 µM (active) and the GI50 (OVCAR-8) was > 100 µM (inactive). The GI50 (LOX IMVI) was > 100 µM (inactive), the GI50 (OVCAR-3) was 57.7 µM (inactive) and the GI50 (MCF7) was 42.6 µM (inactive). The GI50 (OVCAR-4) was > 100 µM (inactive), the GI50 (KM12) was > 100 µM (inactive) and the GI50 (A498) was > 100 µM (inactive). For the same compound, the GI50 (U-251) was > 100 µM (inactive), the GI50 (CCRF-CEM) was > 100 µM (inactive) and the GI50 (SF-295) was > 100 µM (inactive). For the same compound, the GI50 (TK-10) was > 100 µM (inactive), the GI50 (SN12C) was > 100 µM (inactive) and the GI50 (SK-MEL-28) was 3.29 µM (inactive). The GI50 (ACHN) was > 100 µM (inactive), the GI50 (HCT-15) was over 100 µM and the GI50 (SF-539) was > 100 µM (inactive). The GI50 (IGROV-1) was > 100 µM (inactive), the GI50 (UACC-62) was > 100 µM (inactive) and the GI50 (HOP-92) was > 100 µM (inactive). The GI50 (NCI-H460) was > 100 µM (inactive), the GI50 (SK-MEL-2) was > 100 µM (inactive) and the GI50 (Hs-578T) was > 100 µM (inactive). For the same compound, the GI50 (NCI-H226) was > 100 µM (inactive), the GI50 (EKVX) was 86.3 µM (inactive) and the GI50 (RPMI-8226) was > 100 µM (inactive). For the same compound, the GI50 (COLO 205) was > 100 µM (inactive), the GI50 (T47D) was > 100 µM (inactive) and the GI50 (SK-OV-3) was > 100 µM (inactive). For the same compound, the GI50 (SK-MEL-5) was 73.5 µM (inactive), the GI50 (OVCAR-5) was > 100 µM (inactive) and the GI50 (786-0) was > 100 µM (inactive). The GI50 (MDA-N) was > 100 µM (inactive), the GI50 (A549) was > 100 µM (inactive) and the GI50 (SF-268) was 0.583 µM (active). The GI50 (SW-620) was > 100 µM (inactive), the GI50 (MOLT-4) was > 100 µM (inactive) and the GI50 (NCI-H522) was > 100 µM (inactive). For the same compound, the GI50 (NCI/ADR-RES) was > 100 µM (inactive), the GI50 (SNB-75) was 58.9 µM (inactive) and the GI50 (SNB-19) was > 100 µM (inactive). For the same compound, the GI50 (MDA-MB-435) was > 100 µM (inactive), the GI50 (CAKI-1) was > 100 µM (inactive) and the GI50 (HCT-116) was > 100 µM (inactive). The GI50 (SR) was > 100 µM (inactive), the GI50 (HT-29) was > 100 µM (inactive) and the GI50 (MDA-MB-231) was > 100 µM (inactive). For the same compound, the GI50 (UACC-257) was > 100 µM (inactive), the GI50 (K562) was > 100 µM (inactive) and the GI50 (NCI-H23) was > 100 µM (inactive). The GI50 (UO-31) was > 100 µM (inactive), the GI50 (M14) was > 100 µM (inactive) and the GI50 (HCC 2998) was > 100 µM (inactive).

In the case of Cc1ccc(N(C(=O)Nc2ccccc2)C2=NCC(C)S2)cc1C (centres undefined), the GI50 (Malme-3M) is reported as 20.3 µM (inactive), the GI50 (PC-3) is reported as 24.4 µM (inactive) and the GI50 (HOP-62) is reported as 53.3 µM (inactive). For the same compound, the GI50 (DU-145) was 31.4 µM (inactive), the GI50 (OVCAR-8) was 29.2 µM (inactive) and the GI50 (LOX IMVI) was 16.6 µM (inactive). The GI50 (OVCAR-3) was 17.3 µM (inactive), the GI50 (MCF7) was 12.8 µM (inactive) and the GI50 (OVCAR-4) was 28.9 µM (inactive). The GI50 (KM12) was 17.8 µM (inactive), the GI50 (A498) was 14 µM (inactive) and the GI50 (U-251) was 19.3 µM (inactive). The GI50 (CCRF-CEM) was 19.6 µM (inactive), the GI50 (SF-295) was 24.4 µM (inactive) and the GI50 (TK-10) was 21 µM (inactive). For the same compound, the GI50 (SN12C) was 13.7 µM (inactive), the GI50 (SK-MEL-28) was 17.5 µM (inactive) and the GI50 (ACHN) was 28.7 µM (inactive). The GI50 (HCT-15) was 15.4 µM, the GI50 (SF-539) was 20.4 µM (inactive) and the GI50 (IGROV-1) was 22.4 µM (inactive). The GI50 (HOP-92) was 22.5 µM (inactive), the GI50 (NCI-H460) was 18 µM (inactive) and the GI50 (SK-MEL-2) was 17.4 µM (inactive). For the same compound, the GI50 (Hs-578T) was 23.2 µM (inactive), the GI50 (HL-60) was 20.1 µM (inactive) and the GI50 (EKVX) was 17.9 µM (inactive). For the same compound, the GI50 (RPMI-8226) was 20 µM (inactive), the GI50 (COLO 205) was 19.4 µM (inactive) and the GI50 (T47D) was 14.8 µM (inactive). For the same compound, the GI50 (SK-OV-3) was 39.6 µM (inactive), the GI50 (SK-MEL-5) was 17 µM (inactive) and the GI50 (OVCAR-5) was 23.1 µM (inactive). The GI50 (786-0) was 20.4 µM (inactive), the GI50 (MDA-N) was 17.6 µM (inactive) and the GI50 (A549) was 29 µM (inactive). The GI50 (SF-268) was 24 µM (inactive), the GI50 (SW-620) was 24.7 µM (inactive) and the GI50 (MOLT-4) was > 10 µM (inactive). For the same compound, the GI50 (NCI/ADR-RES) was 14.8 µM (inactive), the GI50 (SNB-75) was 24.4 µM (inactive) and the GI50 (SNB-19) was 33.3 µM (inactive). For the same compound, the GI50 (CAKI-1) was > 10 µM (inactive), the GI50 (HCT-116) was 16.4 µM (inactive) and the GI50 (SR) was 23.7 µM (inactive). For the same compound, the GI50 (HT-29) was 18.2 µM (inactive), the GI50 (MDA-MB-231) was 18.7 µM (inactive) and the GI50 (UACC-257) was > 10 µM (inactive). The GI50 (K562) was 42.7 µM (inactive), the GI50 (NCI-H23) was 15.7 µM (inactive) and the GI50 (UO-31) was 18.5 µM (inactive). The GI50 (M14) was 13.4 µM (inactive) and the GI50 (HCC 2998) was > 10 µM (inactive).

In the case of c1ccc2c3nnc(c2c1)SCCSCCSc1nnc(c2ccccc12)SCCSCCS3, the GI50 (Malme-3M) is reported as > 100 µM (inactive), the GI50 (PC-3) is reported as > 100 µM (inactive) and the GI50 (HOP-62) is reported as > 100 µM (inactive). For the same compound, the GI50 (OVCAR-8) was > 100 µM (inactive), the GI50 (LOX IMVI) was > 100 µM (inactive) and the GI50 (OVCAR-3) was > 100 µM (inactive). The GI50 (OVCAR-4) was > 100 µM (inactive), the GI50 (SF-295) was > 100 µM (inactive) and the GI50 (SN12C) was > 100 µM (inactive). For the same compound, the GI50 (ACHN) was > 100 µM (inactive), the GI50 (HCT-15) was over 100 µM and the GI50 (IGROV-1) was > 100 µM (inactive). For the same compound, the GI50 (UACC-62) was > 100 µM (inactive), the GI50 (HOP-92) was > 100 µM (inactive) and the GI50 (NCI-H460) was > 100 µM (inactive). For the same compound, the GI50 (SK-MEL-2) was > 100 µM (inactive), the GI50 (Hs-578T) was > 100 µM (inactive) and the GI50 (EKVX) was > 100 µM (inactive). The GI50 (COLO 205) was > 100 µM (inactive), the GI50 (T47D) was > 100 µM (inactive) and the GI50 (SK-OV-3) was > 100 µM (inactive). The GI50 (SK-MEL-5) was > 100 µM (inactive), the GI50 (A549) was > 100 µM (inactive) and the GI50 (SF-268) was > 100 µM (inactive). For the same compound, the GI50 (SW-620) was > 100 µM (inactive), the GI50 (MOLT-4) was > 100 µM (inactive) and the GI50 (NCI-H522) was > 100 µM (inactive). For the same compound, the GI50 (NCI/ADR-RES) was > 100 µM (inactive), the GI50 (SNB-75) was > 100 µM (inactive) and the GI50 (SR) was > 100 µM (inactive). The GI50 (HT-29) was > 100 µM (inactive), the GI50 (MDA-MB-231) was > 100 µM (inactive) and the GI50 (UACC-257) was > 100 µM (inactive). For the same compound, the GI50 (M14) was > 100 µM (inactive).
